Test results as given in the supplement of paper PMC8617591.

How the values were obtained:
[1] = tested on: Mycobacterium tuberculosis Erdman (autoluminescent); assay: Einf, fitted maximum growth inhibition of three-drug combination (fraction); higher = stronger maximal inhibition
Method: (§1)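 DiaMOND equipotent three-drug combination dose responses (10 doses, 1.5- or 2-fold spacing, centred on IC90) against autoluminescent M. tuberculosis Erdman in 8 in vitro models. Read-out is OD600, or luminescence for the intracellular and dormancy models, normalised to untreated wells. Hill-fit Einf, AUC25 and GRinf are potency metrics; FIC50 and FIC90 are total Loewe fractional inhibitory concentrations as log2 (negative = synergy).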

[2] = tested on: Mycobacterium tuberculosis Erdman (autoluminescent); assay: AUC25, normalised area under dose response up to IC25 (three-drug combination) (fraction (0-1)); higher = more potent at low dose
Method: as §1

[3] = tested on: Mycobacterium tuberculosis Erdman (autoluminescent); assay: total FIC90 (Loewe) at 90% inhibition, three-drug combination (log2); higher = more antagonistic
Method: as §1

[4] = tested on: Mycobacterium tuberculosis Erdman (autoluminescent); assay: total FIC50 (Loewe) at 50% inhibition, three-drug combination (log2); higher = more antagonistic
Method: as §1

[5] = tested on: Mycobacterium tuberculosis Erdman (autoluminescent); assay: GRinf, maximum normalised growth rate inhibition (three-drug combination) (unitless (-1 to 1)); higher = less effect (negative = killing)
Method: as §1

CC[C@@H](CO)NCCN[C@@H](CC)CO [ethambutol] + NNC(=O)c1ccncc1 [isoniazid] + O=[N+]([O-])c1cn2c(n1)OC[C@@H](OCc1ccc(OC(F)(F)F)cc1)C2 [pretomanid]
Conditions	AUC25, [2]	Einf, [1]	GRinf, [5]	total FIC50, [4]	total FIC90, [3]
in vitro model: acidic pH 5.7, time point: constant (~7 days, model-specific)	0.121	0.841	-0.764	0.401	–
in vitro model: acidic pH 5.7, time point: terminal (~4-5 doublings, model-specific)	0.0806	0.968	-0.36	0.77	0.544
in vitro model: intracellular J774, time point: constant = terminal	–	0.996	-0.562	–	-0.84

Conditions	AUC25, [2]	Einf, [1]	GRinf, [5]	total FIC50, [4]	total FIC90, [3]
in vitro model: butyrate, time point: constant (~7 days, model-specific)	0.0954	0.941	-0.0462	0.443	–
in vitro model: butyrate, time point: terminal (~4-5 doublings, model-specific)	0.0496	0.966	-0.0497	0.439	0.012
in vitro model: cholesterol 0.05 mM, time point: constant (~7 days, model-specific)	0.11	0.715	-0.203	0.668	–
in vitro model: cholesterol 0.05 mM, time point: terminal (~4-5 doublings, model-specific)	0.0657	0.858	0.0963	0.823	–
in vitro model: cholesterol-high 0.2 mM, time point: constant (~7 days, model-specific)	0.0675	0.881	-0.113	1.17	–
in vitro model: cholesterol-high 0.2 mM, time point: terminal (~4-5 doublings, model-specific)	0.0388	0.996	-0.623	1.18	1.18
in vitro model: dormancy (butyrate + nitrate, low O2), time point: constant (~7 days, model-specific)	0.162	0.915	0.106	0.0212	–
in vitro model: dormancy (butyrate + nitrate, low O2), time point: terminal (~4-5 doublings, model-specific)	0.105	0.982	-0.213	0.237	0.398
in vitro model: standard 7H9 glycerol, time point: constant = terminal	0.0742	0.924	0.0732	0.498	–
in vitro model: valerate, time point: constant (~7 days, model-specific)	0.109	0.867	0.0667	0.146	–
in vitro model: valerate, time point: terminal (~4-5 doublings, model-specific)	0.0768	0.92	0.0915	0.406	–

CC[C@@H](CO)NCCN[C@@H](CC)CO [ethambutol] + O=[N+]([O-])c1cn2c(n1)OC[C@@H](OCc1ccc(OC(F)(F)F)cc1)C2 [pretomanid] + CO[C@H]1/C=C/O[C@@]2(C)Oc3c(C)c(O)c4c(O)c(c(/C=N/N5CCN(C6CCCC6)CC5)c(O)c4c3C2=O)NC(=O)/C(C)=C\C=C\[C@H](C)[C@H](O)[C@@H](C)[C@@H](O)[C@@H](C)[C@H](OC(C)=O)[C@@H]1C [rifapentine]
Conditions	AUC25, [2]	Einf, [1]	GRinf, [5]	total FIC50, [4]	total FIC90, [3]
in vitro model: acidic pH 5.7, time point: constant (~7 days, model-specific)	0.109	0.881	-0.167	-0.27	–
in vitro model: acidic pH 5.7, time point: terminal (~4-5 doublings, model-specific)	0.0593	0.965	-0.136	-0.17	-0.213
in vitro model: intracellular J774, time point: constant = terminal	–	0.983	-0.509	–	-1.96

Conditions	AUC25, [2]	Einf, [1]	GRinf, [5]	total FIC50, [4]	total FIC90, [3]
in vitro model: butyrate, time point: constant (~7 days, model-specific)	0.0719	0.917	0.00142	0.274	–
in vitro model: butyrate, time point: terminal (~4-5 doublings, model-specific)	0.0544	0.96	0.0016	0.212	-0.372
in vitro model: cholesterol 0.05 mM, time point: constant (~7 days, model-specific)	0.103	0.743	-0.355	0.946	–
in vitro model: cholesterol 0.05 mM, time point: terminal (~4-5 doublings, model-specific)	0.0797	0.923	-0.204	1.14	–
in vitro model: cholesterol-high 0.2 mM, time point: constant (~7 days, model-specific)	0.0331	0.825	-0.056	1.15	–
in vitro model: cholesterol-high 0.2 mM, time point: terminal (~4-5 doublings, model-specific)	0.0353	1	-0.701	1.34	1.42
in vitro model: dormancy (butyrate + nitrate, low O2), time point: constant (~7 days, model-specific)	0.115	0.832	0.245	0.472	–
in vitro model: dormancy (butyrate + nitrate, low O2), time point: terminal (~4-5 doublings, model-specific)	0.0993	0.964	-0.137	0.154	0.383
in vitro model: standard 7H9 glycerol, time point: constant = terminal	0.0595	0.912	0.0905	0.054	–
in vitro model: valerate, time point: constant (~7 days, model-specific)	0.0932	0.882	-0.0094	0.185	–
in vitro model: valerate, time point: terminal (~4-5 doublings, model-specific)	0.0526	0.938	0.0245	0.593	0.229

CC[C@@H](CO)NCCN[C@@H](CC)CO [ethambutol] + O=[N+]([O-])c1cn2c(n1)OC[C@@H](OCc1ccc(OC(F)(F)F)cc1)C2 [pretomanid] + CO[C@H]1/C=C/O[C@@]2(C)Oc3c(C)c(O)c4c(O)c(c(/C=N/N5CCN(C)CC5)c(O)c4c3C2=O)NC(=O)/C(C)=C\C=C\[C@H](C)[C@H](O)[C@@H](C)[C@@H](O)[C@@H](C)[C@H](OC(C)=O)[C@@H]1C [rifampicin]
Conditions	AUC25, [2]	Einf, [1]	GRinf, [5]	total FIC50, [4]	total FIC90, [3]
in vitro model: acidic pH 5.7, time point: constant (~7 days, model-specific)	0.116	0.896	-0.0878	-0.207	–
in vitro model: acidic pH 5.7, time point: terminal (~4-5 doublings, model-specific)	0.0422	0.965	-0.0884	-0.118	-0.7
in vitro model: intracellular J774, time point: constant = terminal	–	0.979	-0.423	–	-2.45

Conditions	AUC25, [2]	Einf, [1]	GRinf, [5]	total FIC50, [4]	total FIC90, [3]
in vitro model: butyrate, time point: constant (~7 days, model-specific)	0.0766	0.908	0.0166	0.153	–
in vitro model: butyrate, time point: terminal (~4-5 doublings, model-specific)	0.075	0.968	-0.0125	-0.0702	-0.43
in vitro model: cholesterol 0.05 mM, time point: constant (~7 days, model-specific)	0.123	0.753	-0.232	0.599	–
in vitro model: cholesterol 0.05 mM, time point: terminal (~4-5 doublings, model-specific)	0.0708	0.852	0.216	0.863	–
in vitro model: cholesterol-high 0.2 mM, time point: constant (~7 days, model-specific)	0.0614	0.857	-0.0797	1.05	–
in vitro model: cholesterol-high 0.2 mM, time point: terminal (~4-5 doublings, model-specific)	0.0471	0.992	-0.568	1.06	0.833
in vitro model: dormancy (butyrate + nitrate, low O2), time point: constant (~7 days, model-specific)	0.102	0.883	0.315	-0.71	–
in vitro model: dormancy (butyrate + nitrate, low O2), time point: terminal (~4-5 doublings, model-specific)	0.085	0.993	-0.16	-0.599	-0.673
in vitro model: standard 7H9 glycerol, time point: constant = terminal	0.0649	0.919	0.0317	-0.222	–
in vitro model: valerate, time point: constant (~7 days, model-specific)	0.0577	0.876	0.0174	0.363	–
in vitro model: valerate, time point: terminal (~4-5 doublings, model-specific)	0.033	0.931	0.0322	0.443	-0.575

CC[C@@H](CO)NCCN[C@@H](CC)CO [ethambutol] + O=[N+]([O-])c1cn2c(n1)OC[C@@H](OCc1ccc(OC(F)(F)F)cc1)C2 [pretomanid] + NC(=O)c1cnccn1 [pyrazinamide]
Conditions	AUC25, [2]	Einf, [1]	GRinf, [5]	total FIC50, [4]	total FIC90, [3]
in vitro model: acidic pH 5.7, time point: constant (~7 days, model-specific)	0.122	0.735	-0.0977	-0.536	–
in vitro model: acidic pH 5.7, time point: terminal (~4-5 doublings, model-specific)	0.091	0.962	-0.384	0.211	-1.13
in vitro model: intracellular J774, time point: constant = terminal	–	0.983	-0.544	–	-0.753

Conditions	AUC25, [2]	Einf, [1]	GRinf, [5]	total FIC50, [4]	total FIC90, [3]
in vitro model: butyrate, time point: constant (~7 days, model-specific)	0.0885	0.898	0.0512	0.0336	–
in vitro model: butyrate, time point: terminal (~4-5 doublings, model-specific)	0.0789	0.949	0.0472	0.0804	0.185
in vitro model: cholesterol 0.05 mM, time point: constant (~7 days, model-specific)	0.13	0.709	-0.334	–	–
in vitro model: cholesterol 0.05 mM, time point: terminal (~4-5 doublings, model-specific)	0.129	0.723	-0.277	0.522	–
in vitro model: cholesterol-high 0.2 mM, time point: constant (~7 days, model-specific)	0.0837	0.876	-0.121	0.648	–
in vitro model: cholesterol-high 0.2 mM, time point: terminal (~4-5 doublings, model-specific)	0.0682	0.992	-0.572	0.65	1.05
in vitro model: dormancy (butyrate + nitrate, low O2), time point: constant (~7 days, model-specific)	0.127	0.844	0.4	-0.415	–
in vitro model: dormancy (butyrate + nitrate, low O2), time point: terminal (~4-5 doublings, model-specific)	0.11	0.967	-0.312	0.312	1.35
in vitro model: standard 7H9 glycerol, time point: constant = terminal	0.0755	0.913	0.125	0.461	–
in vitro model: valerate, time point: constant (~7 days, model-specific)	0.0698	0.882	0.0142	-0.111	–
in vitro model: valerate, time point: terminal (~4-5 doublings, model-specific)	0.0514	0.919	0.0593	0.0754	-0.361
